Measured values reported in patent US11040954B1, “CXCR3 receptor agonists” (RECEPTOS LLC, priority 2016, dated 2021).

Target: T1, CXCR3 (Homo sapiens, UniProt P49682)
T1 construct: host or cells: CHO-K1 (cAMP Hunter CHOK1 CXCR3 Gi cell line)
T1 sequence (P49682 1-368): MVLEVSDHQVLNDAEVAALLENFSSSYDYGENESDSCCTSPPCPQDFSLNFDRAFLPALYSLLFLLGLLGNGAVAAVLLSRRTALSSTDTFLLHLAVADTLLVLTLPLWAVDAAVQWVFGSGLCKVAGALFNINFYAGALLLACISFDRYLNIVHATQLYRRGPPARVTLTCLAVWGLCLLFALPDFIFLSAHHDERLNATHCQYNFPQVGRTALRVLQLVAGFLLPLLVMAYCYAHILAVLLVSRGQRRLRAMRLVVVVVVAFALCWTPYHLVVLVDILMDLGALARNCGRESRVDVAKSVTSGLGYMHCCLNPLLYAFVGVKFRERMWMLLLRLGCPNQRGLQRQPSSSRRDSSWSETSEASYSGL
Assay: CXCR3 cAMP agonist assay (cAMP Hunter CHOK1 CXCR3 Gi cell line, forskolin-stimulated, HitHunter cAMP detection)
Format: cell-based
Settings: cAMP Hunter CHOK1 CXCR3 Gi cells, 20 μM forskolin, 30 minutes; read-out: Activity (CXCR3 cAMP agonist assay compound EC50)
Procedure, shortened: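 Agonist activity was measured as suppression of forskolin (20 μM)-induced cAMP, read by luminescent enzyme-fragment complementation with a cAMP standard curve and CXCL11 defining full efficacy. Assay used 50,000 CXCR3 Gi CHOK1 cells/well in pH 7.4 HEPES-buffered HBSS with 0.1% BSA, compound 0-10 μM over 12 points, 30 min incubation.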

EC50 | Compound
50 to 250 nM | N#Cc1c(NC(=O)[C@H](CCN)NC(=O)[C@@H]2Cc3ccccc3CN2C(=O)CCC(=O)c2ccccc2)ccc(Cl)c1Cl [Compound 14-26]
> 500 nM | COc1c(NC(=O)[C@H](CCN)NC(=O)[C@@H]2Cc3ccccc3CN2C(=O)CCC(=O)c2ccccc2)ccc(Cl)c1Cl [Compound 14-27]
250 to 500 nM | NCC[C@@H](NC(=O)[C@@H]1Cc2ccccc2CN1C(=O)CCC(=O)c1ccccc1)C(=O)Nc1ccc(Cl)c(Cl)c1F [Compound 14-29]
< 50 nM | CC1(C)CCN(C(=O)CCC(=O)N2Cc3ccccc3C[C@H]2C(=O)N[C@@H](CCN)C(=O)Nc2ccc(Cl)c(Cl)c2F)CC1 [Compound 15-1, (S)—N—((S)-4-amino-1-((3,4-dichloro-2-fluorophenyl)amino)-1-oxobutan-2-yl)-2-(4-(4,4-dimethylpiperidin-1-yl)-4-oxobutanoyl)-1,2,3,4-tetrahydroisoquinoline-3-carboxamide]
< 50 nM | CC1(C)CCCN1C(=O)CCC(=O)N1Cc2ccccc2C[C@H]1C(=O)N[C@@H](CCN)C(=O)Nc1ccc(Cl)c(Cl)c1F [Compound 15-4]
< 50 nM | CC1CN(C(=O)CCC(=O)N2Cc3ccccc3C[C@H]2C(=O)N[C@@H](CCN)C(=O)Nc2ccc(Cl)c(Cl)c2F)CCN1C (stereo partly drawn) [Compound 15-5]
< 50 nM | NCC[C@H](NC(=O)[C@@H]1Cc2ccccc2CN1C(=O)CCC(=O)N1CCCCC12CCC2)C(=O)Nc1ccc(Cl)c(Cl)c1F [Compound 15-7]
< 50 nM | NCC[C@H](NC(=O)[C@@H]1Cc2ccccc2CN1C(=O)CCC(=O)N1CCc2ccccc2C1)C(=O)Nc1ccc(Cl)c(Cl)c1F [Compound 15-8]
< 50 nM | CC(C)C1CCN(C(=O)CCC(=O)N2Cc3ccccc3C[C@H]2C(=O)N[C@@H](CCN)C(=O)Nc2ccc(Cl)c(Cl)c2F)C1 (stereo partly drawn) [Compound 15-9]
< 50 nM | CC(C)C1CCCN1C(=O)CCC(=O)N1Cc2ccccc2C[C@H]1C(=O)N[C@@H](CCN)C(=O)Nc1ccc(Cl)c(Cl)c1F (stereo partly drawn) [Compound 15-10]
< 50 nM | CC1(C)COCCN1C(=O)CCC(=O)N1Cc2ccccc2C[C@H]1C(=O)N[C@@H](CCN)C(=O)Nc1ccc(Cl)c(Cl)c1F [Compound 15-11]
250 to 500 nM | NCC[C@H](NC(=O)[C@@H]1Cc2ccccc2CN1C(=O)CCC(=O)N1CCC2(CC1)COC2)C(=O)Nc1ccc(Cl)c(Cl)c1F [Compound 15-12]
> 500 nM | CS(=O)(=O)C1CCN(C(=O)CCC(=O)N2Cc3ccccc3C[C@H]2C(=O)N[C@@H](CCN)C(=O)Nc2ccc(Cl)c(Cl)c2F)CC1 [Compound 15-13]
50 to 250 nM | CC(C)(C)CC1CCCCN1C(=O)CCC(=O)N1Cc2ccccc2C[C@H]1C(=O)N[C@@H](CCN)C(=O)Nc1ccc(Cl)c(Cl)c1F (stereo partly drawn) [Compound 15-14]
< 50 nM | NCC[C@H](NC(=O)[C@@H]1Cc2ccccc2CN1C(=O)CCC(=O)N1CCCCCC1)C(=O)Nc1ccc(Cl)c(Cl)c1F [Compound 15-15]
< 50 nM | COCC1CCCCN1C(=O)CCC(=O)N1Cc2ccccc2C[C@H]1C(=O)N[C@@H](CCN)C(=O)Nc1ccc(Cl)c(Cl)c1F (stereo partly drawn) [Compound 15-16]
> 500 nM | CN(C)CC1CCCCN1C(=O)CCC(=O)N1Cc2ccccc2C[C@H]1C(=O)N[C@@H](CCN)C(=O)Nc1ccc(Cl)c(Cl)c1F (stereo partly drawn) [Compound 15-17]
< 50 nM | NCC[C@H](NC(=O)[C@@H]1Cc2ccccc2CN1C(=O)CCC(=O)N1CCCC[C@@H]1CO)C(=O)Nc1ccc(Cl)c(Cl)c1F [Compound 15-18]
50 to 250 nM | NCC[C@H](NC(=O)[C@@H]1Cc2ccccc2CN1C(=O)CCC(=O)N1CCCC[C@H]1CO)C(=O)Nc1ccc(Cl)c(Cl)c1F [Compound 15-19]
< 50 nM | CC(C)CC1CCCCN1C(=O)CCC(=O)N1Cc2ccccc2C[C@H]1C(=O)N[C@@H](CCN)C(=O)Nc1ccc(Cl)c(Cl)c1F (stereo partly drawn) [Compound 15-20]
50 to 250 nM | CC(C)C1CCCCN1C(=O)CCC(=O)N1Cc2ccccc2C[C@H]1C(=O)N[C@@H](CCN)C(=O)Nc1ccc(Cl)c(Cl)c1F (stereo partly drawn) [Compound 15-21]
< 50 nM | NCC[C@H](NC(=O)[C@@H]1Cc2ccccc2CN1C(=O)CCC(=O)N1CCCCC1C1CCC1)C(=O)Nc1ccc(Cl)c(Cl)c1F (stereo partly drawn) [Compound 15-22]
50 to 250 nM | CCC(CC)C1CCCCN1C(=O)CCC(=O)N1Cc2ccccc2C[C@H]1C(=O)N[C@@H](CCN)C(=O)Nc1ccc(Cl)c(Cl)c1F (stereo partly drawn) [Compound 15-23]
250 to 500 nM | NCC[C@H](NC(=O)[C@@H]1Cc2ccccc2CN1C(=O)CCC(=O)N1CCC2(CC1)CC(F)(F)C2)C(=O)Nc1ccc(Cl)c(Cl)c1F [Compound 15-24]
< 50 nM | NCC[C@H](NC(=O)[C@@H]1Cc2ccccc2CN1C(=O)CCC(=O)N1CCCC(CF)C1)C(=O)Nc1ccc(Cl)c(Cl)c1F (stereo partly drawn) [Compound 15-25]
< 50 nM | CO[C@H]1CCCN(C(=O)CCC(=O)N2Cc3ccccc3C[C@H]2C(=O)N[C@@H](CCN)C(=O)Nc2ccc(Cl)c(Cl)c2F)C1 [Compound 15-26]

EC50 | Compound
< 50 nM | CO[C@@H]1CCCN(C(=O)CCC(=O)N2Cc3ccccc3C[C@H]2C(=O)N[C@@H](CCN)C(=O)Nc2ccc(Cl)c(Cl)c2F)C1 [Compound 15-27]
> 500 nM | CN(C)CCN(C)C(=O)CCC(=O)N1Cc2ccccc2C[C@H]1C(=O)N[C@@H](CCN)C(=O)Nc1ccc(Cl)c(Cl)c1F [Compound 15-28]
< 50 nM | CC1CN(C(=O)CCC(=O)N2Cc3ccccc3C[C@H]2C(=O)N[C@@H](CCN)C(=O)Nc2ccc(Cl)c(Cl)c2F)CC1C (stereo partly drawn) [Compound 15-29]
50 to 250 nM | CN(C)[C@H]1CCN(C(=O)CCC(=O)N2Cc3ccccc3C[C@H]2C(=O)N[C@@H](CCN)C(=O)Nc2ccc(Cl)c(Cl)c2F)C1 [Compound 15-30]
< 50 nM | CN(C)[C@@H]1CCN(C(=O)CCC(=O)N2Cc3ccccc3C[C@H]2C(=O)N[C@@H](CCN)C(=O)Nc2ccc(Cl)c(Cl)c2F)C1 [Compound 15-31]
250 to 500 nM | CC(C)(C)C1CCCCN1C(=O)CCC(=O)N1Cc2ccccc2C[C@H]1C(=O)N[C@@H](CCN)C(=O)Nc1ccc(Cl)c(Cl)c1F (stereo partly drawn) [Compound 15-32]
< 50 nM | NCC[C@H](NC(=O)[C@@H]1Cc2ccccc2CN1C(=O)CCC(=O)N1CCC2(CCC2)C1)C(=O)Nc1ccc(Cl)c(Cl)c1F [Compound 15-33]
< 50 nM | CC(C)(C)C1CCN(C(=O)CCC(=O)N2Cc3ccccc3C[C@H]2C(=O)N[C@@H](CCN)C(=O)Nc2ccc(Cl)c(Cl)c2F)C1 (stereo partly drawn) [Compound 15-34]
< 50 nM | CCN(C(=O)CCC(=O)N1Cc2ccccc2C[C@H]1C(=O)N[C@@H](CCN)C(=O)Nc1ccc(Cl)c(Cl)c1F)C(C)(C)C [Compound 15-35]
< 50 nM | CN(C(=O)CCC(=O)N1Cc2ccccc2C[C@H]1C(=O)N[C@@H](CCN)C(=O)Nc1ccc(Cl)c(Cl)c1F)C1CCCC1 [Compound 15-36]
50 to 250 nM | CN(C(=O)CCC(=O)N1Cc2ccccc2C[C@H]1C(=O)N[C@@H](CCN)C(=O)Nc1ccc(Cl)c(Cl)c1F)C1CCC1 [Compound 15-37]
< 50 nM | NCC[C@H](NC(=O)[C@@H]1Cc2ccccc2CN1C(=O)CCC(=O)N1CCC2CCCCC21)C(=O)Nc1ccc(Cl)c(Cl)c1F (stereo partly drawn) [Compound 15-38]
250 to 500 nM | CC(C)N(C(=O)CCC(=O)N1Cc2ccccc2C[C@H]1C(=O)N[C@@H](CCN)C(=O)Nc1ccc(Cl)c(Cl)c1F)C(C)C [Compound 15-39]
50 to 250 nM | CCN(CC(C)(C)C)C(=O)CCC(=O)N1Cc2ccccc2C[C@H]1C(=O)N[C@@H](CCN)C(=O)Nc1ccc(Cl)c(Cl)c1F [Compound 15-40]
> 500 nM | CN(C(=O)CCC(=O)N1Cc2ccccc2C[C@H]1C(=O)N[C@@H](CCN)C(=O)Nc1ccc(Cl)c(Cl)c1F)C1CC1 [Compound 15-41]
250 to 500 nM | CCN(CC)C(=O)CCC(=O)N1Cc2ccccc2C[C@H]1C(=O)N[C@@H](CCN)C(=O)Nc1ccc(Cl)c(Cl)c1F [Compound 15-42]
< 50 nM | CN(CC(C)(C)C)C(=O)CCC(=O)N1Cc2ccccc2C[C@H]1C(=O)N[C@@H](CCN)C(=O)Nc1ccc(Cl)c(Cl)c1F [Compound 15-43]
< 50 nM | CN(CCC(C)(C)C)C(=O)CCC(=O)N1Cc2ccccc2C[C@H]1C(=O)N[C@@H](CCN)C(=O)Nc1ccc(Cl)c(Cl)c1F [Compound 15-44]
250 to 500 nM | CN1CN(C(=O)CCC(=O)N2Cc3ccccc3C[C@H]2C(=O)N[C@@H](CCN)C(=O)Nc2ccc(Cl)c(Cl)c2F)CC1=O [Compound 15-45]
< 50 nM | NCC[C@H](NC(=O)[C@@H]1Cc2ccccc2CN1C(=O)CCC(=O)N1CCC2(CC2)C1)C(=O)Nc1ccc(Cl)c(Cl)c1F [Compound 15-46]
< 50 nM | NCC[C@H](NC(=O)[C@@H]1Cc2ccccc2CN1C(=O)CCC(=O)N1CCC(C(F)(F)F)C1)C(=O)Nc1ccc(Cl)c(Cl)c1F (stereo partly drawn) [Compound 15-47]
< 50 nM | NCC[C@H](NC(=O)[C@@H]1Cc2ccccc2CN1C(=O)CCC(=O)N1CCN2CCC[C@@H]2C1)C(=O)Nc1ccc(Cl)c(Cl)c1F [Compound 15-49]
< 50 nM | Cc1c(Cl)ccc(NC(=O)[C@H](CCN)NC(=O)[C@@H]2Cc3ccccc3CN2C(=O)CCC(=O)N2CCCC(C)(C)C2)c1Cl [Compound 15-50]
< 50 nM | Cc1c(Cl)ccc(NC(=O)[C@H](CCN)NC(=O)[C@@H]2Cc3ccccc3CN2C(=O)CCC(=O)N2CCCC3(CCC3)C2)c1Cl [Compound 15-51]
< 50 nM | Cc1c(Cl)ccc(NC(=O)[C@H](CCN)NC(=O)[C@@H]2Cc3ccccc3CN2C(=O)CCC(=O)N2CCCCC2(C)C)c1Cl [Compound 15-52]
